The values that follow come from patent US4728729A, “Cyanoimidazole nucleoside derivatives” (Sumitomo Pharmaceuticals Co., Ltd., priority 1984, dated 1988).

For test [1] the following is noted: J. of Antibiotics, vol. 27 p. 775 (1974); Canada Pat. No. 1,078,736; cited from earlier work.
Test [2] deals with A549 (lung cancer). The test can be described thus: In vitro growth inhibition assay, A549. In kind it is cell-based. The conditions noted are these: Homo sapiens; A549, monolayer culture, 72 to 120 hr. The protocol:
(§1) In vitro growth inhibition activities were determined according to the method described in "Cancer Research", Vol. 43, p. 5851-5856 (1983).
(§2) In the case of monolayer culture (solid tumor cell lines), cells were cultured for 24 hr without the compound in order to allow cells to attach on the culture plate. Then the culture medium was changed to a fresh medium containing various concentrations of the compound. Cells were further cultured for 72 hr to 120 hr, and then removed from the culture plate by 0.125% trypsin and 0.05% EDTA solution.
(§3) Cell numbers were counted with a Coulter Counter and IC50 s were calculated.

In test [3] the test system is P3HR1 (Burkitt lymphoma). Briefly: In vitro growth inhibition assay, P3HR1. The conditions noted are these: Homo sapiens, P3HR-1; P3HR1, suspension culture, 72 hr. Type of test: cell-based. The protocol: as §1
(§4) In the case of suspension culture (lymphoma and leukemia cell lines), cells were cultured with various concentrations of the compound for 72 hr.
as §3

The subject of test [4] is HL-60 (promyelocytic leukemia). The test can be described thus: In vitro growth inhibition assay, HL-60. In kind it is cell-based. The conditions noted are these: Homo sapiens; HL-60, suspension culture, 72 hr. The procedure: as §1, §4, §3
The subject of test [5] is QG-56 (lung squamous carcinoma). Briefly: In vitro growth inhibition assay, QG-56. Type of test: cell-based. The conditions noted are these: Homo sapiens; QG-56, monolayer culture, 72 to 120 hr. The procedure:
as §1, §2, §3

Test [6] has as its system CCRF-HSB-2 (acute lymphoblastic leukemia). The test can be described thus: In vitro growth inhibition assay, CCRF-HSB-2. Type of test: cell-based. The conditions noted are these: Homo sapiens; CCRF-HSB-2, suspension culture, 72 hr. The procedure:
as §1, §4, §3

For test [7], the system named is anti-SRBC PFC response. The test can be described thus: Immunosuppressive activity: anti-SRBC PFC response in vivo (Cunningham method). Also on record: species or system mouse. The conditions noted are these: for Suppression / PFC × 10^-3 / spleen: day 0 to 3; for Suppression: PFC measured day 4; for PFC × 10^-3 / spleen: measured day 4, AV. ± SD., n = 4, control 363 ± 51. The procedure:
The immunosuppressive activity of the compound of the present invention was assayed in comparison with mizoribine which has been used in immunosuppressive therapy. After a sheep red blood cell preparation (SRBC) was injected in mice, the compounds were administered orally once a day on day 0 to 3 and the plaque forming cell (PFC) number was measured on day 4 by Cunningham method. [Cunningham A. J. et al. Immunol. 14, 599(1968)].

The test system of test [8] is solid Ehrlich carcinoma. The test can be described thus: Antitumor effect on solid Ehrlich carcinoma. Type of test: in vivo, mouse (ICR/Jcl). The conditions noted are these: Days 1,5,9, tumors weighed day 15. The procedure:
The antitumor activities of the compounds of the present invention were estimated according to the method described in "Cancer Research" vol. 43, p. 5851 (1983).
ICR/Jcl male mice, 5 weks old, […], […]. Each test group was composed of 6 mice. Three million cells of Ehrlich carcinoma were injected in the hind leg. The drug was administered orally at days 1, 5, and 9. After sacrificing the mice at day 15, tumors were removed and weighed. The tumor growth inhibitory ratio was calculated according to the following formula. [formula]

For test [9], the system named is various types of human tumor cell lines. The test can be described thus: In vitro growth inhibition on various human tumor cell lines (summary). In kind it is cell-based. The protocol: as §1, §4, §2, §3
Test [10] relates to KU-2 (renal cell carcinoma). The test can be described thus: In vitro growth inhibition assay, KU-2. Type of test: cell-based. The conditions noted are these: Homo sapiens; KU-2, monolayer culture, 72 to 120 hr. The protocol:
as §1, §2, §3

Test [11] relates to QG-90 (lung small cell carcinoma). The test can be described thus: In vitro growth inhibition assay, QG-90. Type of test: cell-based. The conditions noted are these: Homo sapiens; QG-90, monolayer culture, 72 to 120 hr. The protocol:
as §1, §2, §3

In test [12] the test system is SCaBER (bladder squamous carcinoma). The test can be described thus: In vitro growth inhibition assay, SCaBER. Type of test: cell-based. The conditions noted are these: Homo sapiens, monolayer culture, 72 to 120 hr. The protocol: as §1, §2, §3
The test system of test [13] is Hela (uterine cervix cancer). The test can be described thus: In vitro growth inhibition assay, Hela. In kind it is cell-based. The conditions noted are these: Homo sapiens, monolayer culture, 72 to 120 hr. The protocol:
as §1, §2, §3

Test [14] deals with DU 145 (prostate cancer). The test can be described thus: In vitro growth inhibition assay, DU 145. In kind it is cell-based. The conditions noted are these: Homo sapiens; DU 145, monolayer culture, 72 to 120 hr. The protocol: as §1, §2, §3

The structures appear in SMILES notation. Some results are limits rather than exact numbers.

Take `NC(=O)c1nc[nH]c1O` [4-carbamoylimidazolium-5-olate]: the “immunosuppressive and antitumor activities, in words” value in test [1] is “immunosuppressive and antitumor activities”.
As to `N#Cc1ncn([C@@H]2O[C@H](CO)[C@@H](O)[C@H]2O)c1O` [4-cyano-1-β-D-ribofuranosylimidazolium-5-olate], the 50% inhibitory concentration (IC50) was 8.5 µM in test [2]; 4.6 µM in test [3]; 0.87 µM in test [4]; 2.8 µM in [5]; less than 3 µM in [6]; 1 µM in [10]. Moreover, the IC50 in [11] was 6.7 µM; in test [12] it was 5 µM; in test [13], 4.7 µM; in test [14], 4.4 µM. In addition, the Suppression in test [7] (5 mg/day p.o.) stood at 0%; in test [7] (25 mg/day p.o.), 99%; in [7] (50 mg/day p.o.) it was 100%. The “PFC × 10^-3 / spleen” value in [7] (5 mg/day p.o.) was found to be 362 ± 123 PFC × 10^-3 / spleen; in test [7] (25 mg/day p.o.), 4 ± 1 PFC × 10^-3 / spleen; in test [7] (50 mg/day p.o.), 0 PFC × 10^-3 / spleen. Also, in test [7] (oral), the “immunosuppressive activity compared with mizoribine, in words” value is recorded as “more active than mizoribine”. Also, the “immunosuppressive activity in oral administration, in words” value in test [7] (oral) is “potent activity in oral administration”. The “Inhibition ratio (tumor growth)” value is 40.1% in test [8] (10 mg/kg/day po), 73.6% in test [8] (20 mg/kg/day po), 99.8% in test [8] (40 mg/kg/day po) and 99.8% in test [8] (80 mg/kg/day po). Further, in [9], the “growth inhibitory activities on human tumor cell lines, in words” value is recorded as “potent growth inhibitory activities”.
Regarding `NC(=O)c1ncn([C@@H]2O[C@H](CO)[C@@H](O)[C@H]2O)c1O` [Mizoribine, 4-carbamoyl-1-β-D-ribofuranosylimidazolium-5-olate, reference compound], the “immunosuppressive and antitumor activities, in words” value in test [1] is “immunosuppressive and antitumor activities”. In addition, the Suppression in test [7] (5 mg/day p.o.) is 0%; in test [7] (25 mg/day p.o.) it was 69%; in test [7] (50 mg/day p.o.), 89%. Moreover, the “PFC × 10^-3 / spleen” value in [7] (5 mg/day p.o.) is reported as 496 ± 140 PFC × 10^-3 / spleen; in [7] (25 mg/day p.o.), 113 ± 53 PFC × 10^-3 / spleen; in test [7] (50 mg/day p.o.) it was 39 ± 43 PFC × 10^-3 / spleen.
